The source of these data is US20260374773A1, “MULTI-CYCLIC IRAK AND FLT3 INHIBITING COMPOUNDS AND USES THEREOF” (CHILDREN'S HOSPITAL MEDICAL CENTER, priority 2022, published 2026).

For the first experiment, the system named is MOLM14 (D835Y) cells. Put plainly: Combination drug screening with venetoclax, Cell Titer Glo, MOLM14 (D835Y). Also on record: key: relative excess HSA score; more negative = greater synergy. The format is cell-based. Particulars: compound 0-0.1 μM, venetoclax 0-2 μM, 10 × 10, 48 h, negative = synergy. As to the method:
Combination drug therapy has the potential to produce enhanced effects with lower side effects not obtained using either agent alone, or beyond the additive effect of the different concentrations of the two different agents. To determine whether enhanced effects are observed in different drug combinations, combination drug screening was performed as previously described (Mathews-Griner, L. A. et al., Proc. Nat. Acad. Sci., 2014, 111:2349-2354; Lin, G. L. et al., Sci. Trans. Med., 2019, 11: eaaw0064). Briefly, 10 nL of compounds were acoustically dispensed into 1536-well white polystyrene tissue culture-treated plates with an Echo 550 acoustic liquid handler (Labcyte). Cells were then added to compound-containing plates at a density of 500-cells/well in 5 μL of medium. A 10-point custom concentration range was used for all listed drugs in a 10×10 matrix. Plates were incubated for 48 hours at standard incubator conditions covered by a stainless steel gasketed lid to prevent evaporation. 48 hours post compound addition, 3 μL of Cell Titer Glo (Promega) were added to each well and plates were incubated at room temperature for 15 minutes with the stainless-steel lid in place. Luminescence readings were taken using a Viewlux imager (PerkinElmer) with a 2 second exposure time per plate.
Each compound was studied in combination with venetoclax at two concentration ranges of compound and venetoclax, respectively (for a total of 4 combination dose-response curves). The dose combinations that yielded the optimal synergy score, measured as excess HSA, which are reported in Tables 23 and 24 for the FLT3 mutant cell line MOLM14 (D835Y) and the FLT3 WT cell line THP1, respectively.
Table 23 provides combination outcomes for representative compounds with venetoclax in the Cell Titer Glo assay in MOLM14 (D835Y) cells (a FLT3 mutant cell line) at 48 hours. The table provides relative excess HSA values for compounds of the disclosure used in combination with venetoclax compared to gilteritinib hemifumarate used in combination with venetoclax. A negative excess HSA score illustrates that the drug combination is better than either drug alone, wherein greater synergy is observed at larger negative values of the excess HSA score.
Excess HSA is a measure of synergy vs. additivity or antagonism, wherein a negative excess HSA value is indicative of synergy. More information on excess HSA scores can be found in Vlot, Anna H. C. et al., Drug Discovery Today, 2019, 24(12):2286-2298. […] However, different methodologies may yield different numerical scores, and different definitions of what constitutes a deviation from mere additivity vs true drug synergy. The large negative excess HSA values provided in Tables 23 and 24 illustrate that multiple members of this structural class synergize with venetoclax. The degree to which combination therapy has to potential to produce enhanced effects with lower side effects not obtained using either agent alone, or beyond the additive effect of the different concentrations of the two different agents depends on the nature of the drugs used in the combination, and the specific doses/concentrations at which they are ultimately used in the therapeutic regimen. A negative excess HSA score illustrates that the drug combination is better than either drug alone (at the concentrations being studied). […] However, the utility in certain drug combinations vs. others should not be distinguished based on cutoffs between excess HSA scores, because the score itself is only a relative indicator that is completely dependent on experimental design and is not an absolute number. Furthermore, the concept of what constitutes clinically meaningful drug synergy is something that is still being debated, not only between pharmacologists and physicians, but amongst pharmacologists themselves. […]
On the technique in general: In ATP-based viability assays light output follows the ATP content of the culture.
Turning to `COc1cn2ncc(-c3nc(N[C@H]4CNC[C@@H]4F)c(F)cc3F)c2nc1C1CC1` [Compound 24, 6-(5-cyclopropyl-6-methoxypyrazolo[1,5-a]pyrimidin-3-yl)-3,5-difluoro-N-((3S,4S)-4-fluoropyrrolidin-3-yl)pyridin-2-amine], the “Excess HSA” value is reported as −1472.

Still in this experiment, the particulars now being: compound 0-0.1 μM, venetoclax 0-20 μM, 10 × 10, 48 h, negative = synergy.
On to `COc1cn2ncc(-c3nc(N[C@@H]4CCCNC4)ccc3F)c2nc1C1CC1` [Compound 2, (R)-6-(5-cyclopropyl-6-methoxypyrazolo[1,5-a]pyrimidin-3-yl)-5-fluoro-N-(piperidin-3-yl)pyridin-2-amine], for which the “Excess HSA” value is −1843.

For `COc1cn2ncc(-c3nc(N[C@H]4CNCC[C@@H]4F)ncc3F)c2nc1C(C)(C)O` [Compound 6a, 2-(3-(5-fluoro-2-(((3S,4S)-4-fluoropiperidin-3-yl)amino)pyrimidin-4-yl)-6-methoxypyrazolo[1,5-a]pyrimidin-5-yl)propan-2-ol], the “Excess HSA” value was −1057.

As for `COc1cn2ncc(-c3ccnc(N[C@H]4CNCC[C@@H]4F)n3)c2nc1C1CC1` [Compound 7a, 4-(5-cyclopropyl-6-methoxypyrazolo[1,5-a]pyrimidin-3-yl)-N-((3S,4S)-4-fluoropiperidin-3-yl)pyrimidin-2-amine], the “Excess HSA” value is given as −1364.

`COc1cn2ncc(-c3cncc(N[C@H]4CNCC[C@@H]4F)n3)c2nc1C1CC1` [Compound 12a, 6-(5-cyclopropyl-6-methoxypyrazolo[1,5-a]pyrimidin-3-yl)-N-((3S,4S)-4-fluoropiperidin-3-yl)pyrazin-2-amine]: the “Excess HSA” value is given as −1697.

In the case of `COc1cn2ncc(-c3nc(N[C@@H]4CCCNC4)ncc3F)c2nc1C1CC1` [Compound 14a, (R)-4-(5-cyclopropyl-6-methoxypyrazolo[1,5-a]pyrimidin-3-yl)-5-fluoro-N-(piperidin-3-yl)pyrimidin-2-amine], the “Excess HSA” value was −559.2.

For the molecule `COc1cn2ncc(-c3nc(N[C@H]4CNCC[C@@H]4F)ncc3F)c2nc1C1CC1` [Compound 15a, 4-(5-cyclopropyl-6-methoxypyrazolo[1,5-a]pyrimidin-3-yl)-5-fluoro-N-((3S,4S)-4-fluoropiperidin-3-yl)pyrimidin-2-amine], the “Excess HSA” value is recorded as −831.

Turning to `COc1cn2ncc(-c3nc(N[C@H]4CNCC[C@@H]4F)c(F)cc3F)c2nc1C1CC1` [Compound 22, 6-(5-cyclopropyl-6-methoxypyrazolo[1,5-a]pyrimidin-3-yl)-3,5-difluoro-N-((3S,4S)-4-fluoropiperidin-3-yl)pyridin-2-amine], the “Excess HSA” value is recorded as −992.2.

The experiment is the same for the next values; noted with them: compound 0-0.2 μM, venetoclax 0-20 μM, 10 × 10, 48 h, negative = synergy.
`COc1cn2ncc(-c3ccnc(N[C@H]4CNCC[C@@H]4F)n3)c2nc1C(C)(C)O` [Compound 3a, 2-(3-(2-(((3S,4S)-4-fluoropiperidin-3-yl)amino)pyrimidin-4-yl)-6-methoxypyrazolo[1,5-a]pyrimidin-5-yl)propan-2-ol]: the “Excess HSA” value is reported as −1621.
